Assay results taken from ChEMBL document CHEMBL4229350, “Antimicrobial activity and self-assembly behavior of antimicrobial peptide chensinin-1b with lipophilic alkyl tails” (Eur J Med Chem, 2018).
Converted amounts (≈) assume the structure as drawn. The source made the active and inactive calls. No cut-off for these calls is given here. Peptide text beside a SMILES is read from it. * marks the point of attachment. Lauroyl = CCCCCCCCCCCC(=O)*; Octanoyl = CCCCCCCC(=O)*

Experiments:
Lipid bilayer [1] = assay: Induction of membrane permeabilization in calcein loaded LPS/PC/PG large unilamellar vesicles assessed as calcein leakage after 15 mins by fluorescence assay
Lipid bilayer [2] = assay: Induction of membrane permeabilization in calcein loaded PG/CL/PE large unilamellar vesicles assessed as calcein leakage at 6 uM after 15 mins by fluorescence assay relative to control
Lipid bilayer [3] = assay: Induction of membrane permeabilization in calcein loaded PG/CL large unilamellar vesicles assessed as calcein leakage at 6 uM after 15 mins by fluorescence assay relative to control
Lipid bilayer [4] = assay: Induction of membrane permeabilization in calcein loaded PG/CL/PE large unilamellar vesicles assessed as calcein leakage at 3 uM after 10 mins by fluorescence assay relative to control
Lipid bilayer [5] = assay: Induction of membrane permeabilization in calcein loaded PG/CL large unilamellar vesicles assessed as calcein leakage at 3 uM after 10 mins by fluorescence assay relative to control
Escherichia coli [6] = assay: Antimicrobial activity against Escherichia coli AS 1.349 assessed as induction of outer membrane permeabilization by measuring NPN uptake by fluorescence assay; assay type: functional, organism-based
Staphylococcus aureus [7] = assay: Antimicrobial activity against Staphylococcus aureus AS 1.72 assessed as induction of outer membrane permeabilization by measuring NPN uptake by fluorescence assay; assay type: functional, organism-based
Escherichia coli [8] = assay: Antimicrobial activity against Escherichia coli AS 1.349 assessed as induction of bacterial cytoplasmic membrane depolarization at 2 times MIC after 6 mins by diSC3-5 dye-based fluorescence assay; assay type: functional, organism-based
Staphylococcus aureus [9] = assay: Antimicrobial activity against Staphylococcus aureus AS 1.72 assessed as induction of bacterial cytoplasmic membrane depolarization at 2 times MIC after 5 mins by diSC3-5 dye-based fluorescence assay; assay type: functional, organism-based
[10] = Hemolytic activity against human erythrocytes after 1 hr; assay type: ADME, cell-based, Erythrocyte
MCF7 = assay: Cytotoxicity against human MCF7 cells assessed as reduction in cell viability after 1 hr by MTT assay; assay type: functional, cell-based; settings: MCF7, 1 h
A-375 = assay: Cytotoxicity against human A375 cells assessed as reduction in cell viability after 1 hr by MTT assay; assay type: functional, cell-based; settings: A-375, 1 h
HeLa = assay: Cytotoxicity against human HeLa cells assessed as reduction in cell viability after 1 hr by MTT assay; assay type: functional, cell-based
Enterococcus faecalis = assay: Antimicrobial activity against Enterococcus faecalis CGMCC 1.595 after 18 hrs by micro dilution method; assay type: functional; settings: CGMCC 1.595, 18 h
Enterococcus faecium = assay: Antimicrobial activity against Enterococcus faecium CGMCC 1.2334 after 18 hrs by micro dilution method; assay type: functional; settings: CGMCC 1.2334, 18 h
Lactococcus lactis = assay: Antimicrobial activity against Streptococcus lactis AS 1.1690 after 18 hrs by micro dilution method; assay type: functional; settings: AS 1.1690, 18 h
Bacillus cereus = assay: Antimicrobial activity against Bacillus cereus AS 1.126 after 18 hrs by micro dilution method; assay type: functional; settings: AS 1.126, 18 h
Staphylococcus aureus [11] = assay: Antimicrobial activity against Staphylococcus aureus AS 1.72 after 18 hrs by micro dilution method; assay type: functional; settings: AS 1.72, 18 h
Pseudomonas aeruginosa = assay: Antimicrobial activity against Pseudomonas aeruginosa CGMCC 1.860 after 18 hrs by micro dilution method; assay type: functional; settings: CGMCC 1.860, 18 h
Escherichia coli [12] = assay: Antimicrobial activity against Escherichia coli AS 1.349 after 18 hrs by micro dilution method; assay type: functional; settings: AS 1.349, 18 h
Lipid bilayer [13] = assay: Induction of membrane permeabilization in calcein loaded LPS/PC/PG large unilamellar vesicles assessed as calcein leakage at 50 uM after 15 mins by fluorescence assay relative to control
Lipid bilayer [14] = assay: Induction of membrane permeabilization in calcein loaded PC/cholesterol large unilamellar vesicles assessed as calcein leakage at 50 uM after 10 mins by fluorescence assay relative to control
Lipid bilayer [15] = assay: Induction of membrane permeabilization in PC/cholesterol large unilamellar vesicles assessed as blue shift by Tryptophan fluorescence spectroscopy
Lipid bilayer [16] = assay: Induction of membrane permeabilization in PG/CL/PE large unilamellar vesicles assessed as blue shift at compound to lipid ratio of 10 by Tryptophan fluorescence spectroscopy
Lipid bilayer [17] = assay: Induction of membrane permeabilization in PG/CL large unilamellar vesicles assessed as blue shift at compound to lipid ratio of 60 by Tryptophan fluorescence spectroscopy
U-937 [18] = assay: Antiinflammatory activity in human U937 cells assessed as inhibition of LPS-induced TNF-alpha production after 24 hrs by ELISA; assay type: functional, cell-based
U-937 [19] = assay: Antiinflammatory activity in human U937 cells assessed as inhibition of LPS-induced IL-6 production after 24 hrs by ELISA; assay type: functional, cell-based
U-937 [20] = assay: Antiinflammatory activity in human U937 cells assessed as inhibition of LPS-induced TNF-alpha production at 12.6 uM after 24 hrs by ELISA relative to control; assay type: functional; settings: U-937, 24 h
U-937 [21] = assay: Antiinflammatory activity in human U937 cells assessed as inhibition of LPS-induced TNF-alpha production at 6.25 uM after 24 hrs by ELISA relative to control; assay type: functional; settings: U-937, 24 h
U-937 [22] = assay: Antiinflammatory activity in human U937 cells assessed as inhibition of LPS-induced TNF-alpha production at 3.13 uM after 24 hrs by ELISA relative to control; assay type: functional; settings: U-937, 24 h
U-937 [23] = assay: Antiinflammatory activity in human U937 cells assessed as inhibition of LPS-induced IL-6 production at 12.6 uM after 24 hrs by ELISA relative to control; assay type: functional; settings: U-937, 24 h
U-937 [24] = assay: Antiinflammatory activity in human U937 cells assessed as inhibition of LPS-induced IL-6 production at 6.25 uM after 24 hrs by ELISA relative to control; assay type: functional; settings: U-937, 24 h
U-937 [25] = assay: Antiinflammatory activity in human U937 cells assessed as inhibition of LPS-induced IL-6 production at 3.13 uM after 24 hrs by ELISA relative to control; assay type: functional; settings: U-937, 24 h
[26] = Cytotoxicity against human U937 cells assessed as cell viability at 3.13 to 12.6 uM after 1 hr by MTT assay relative to control; assay type: cell-based, U-937; settings: read-out: Activity
Lipopolysaccharide (LPS) [27] = assay: Binding affinity to Escherichia coli 0111:B4 LPS assessed as equilibrium association constant by ITC method
Lipopolysaccharide (LPS) [28] = assay: Binding affinity to Escherichia coli 0111:B4 LPS by ITC method
Lipopolysaccharide (LPS) [29] = assay: Induction of LPS micelles disaggergation assessed as abundant particle size formation at 2 uM by DLS method
[30] = Self-assembly property assessed as diameter of monodispersed micelles at 1 mg/ml at pH 7 by TEM analysis; assay type: physicochemical
[31] = Self-assembly property assessed as diameter of monodispersed micelles at 1 mg/ml at pH 7 readjusted from pH 2 by TEM analysis; assay type: physicochemical
Escherichia coli [32] = assay: Antimicrobial activity against Escherichia coli AS 1.349 assessed as induction of bacterial cytoplasmic membrane depolarization at 2 times MIC after 5 mins by diSC3-5 dye-based fluorescence assay; assay type: functional, organism-based
Staphylococcus aureus [33] = assay: Antimicrobial activity against Staphylococcus aureus AS 1.72 assessed as induction of bacterial cytoplasmic membrane depolarization at 2 times MIC after 4 mins by diSC3-5 dye-based fluorescence assay; assay type: functional, organism-based
Lipopolysaccharide (LPS) [34] = assay: Induction of LPS micelles disaggergation assessed as small particle distribution at 2 uM by DLS method

Compound | Activity (Lipid bilayer [1]) | Activity (Lipid bilayer [2]) [%] | Activity (Lipid bilayer [3]) [%] | Activity (Lipid bilayer [4]) [%] | Activity (Lipid bilayer [5]) [%] | Activity (Escherichia coli [6]) | Activity (Staphylococcus aureus [7]) | HC50 at 1 h [10] [µM] | IC50 (MCF7) [µM] | IC50 (A-375) [µM] | IC50 (HeLa) [µM] | MIC (Enterococcus faecalis) [µM] | MIC (Enterococcus faecium) [µM] | MIC (Lactococcus lactis) [µM] | MIC (Bacillus cereus) [µM] | MIC (Staphylococcus aureus [11]) [µM] | MIC (Pseudomonas aeruginosa) [µM] | MIC (Escherichia coli [12]) [µM] | Activity (Lipid bilayer [13]) [%] | Activity (Lipid bilayer [14]) [%] | further results
CCCCCCCCCCCC(=O)N[C@@H](CO)C(=O)N[C@@H](CCCCN)C(=O)N[C@H](C(=O)N[C@@H](Cc1c[nH]c2ccccc12)C(=O)N[C@@H](CCCNC(=N)N)C(=O)N[C@@H](Cc1cnc[nH]1)C(=O)N[C@@H](Cc1c[nH]c2ccccc12)C(=O)N[C@@H](CCCNC(=N)N)C(=O)N[C@@H](CCCNC(=N)N)C(=O)N[C@@H](Cc1ccccc1)C(=O)N[C@@H](Cc1c[nH]c2ccccc12)C(=O)N[C@@H](Cc1cnc[nH]1)C(=O)N[C@@H](CCCNC(=N)N)C(=O)N[C@@H](C)C(=O)N[C@@H](Cc1cnc[nH]1)C(=O)N[C@@H](CCCNC(=N)N)C(=O)N[C@@H](CCCCN)C(=O)N[C@@H](CC(C)C)C(=O)O)C(C)C (Lauroyl-SKVWRHWRRFWHRAHRKL-OH) | Dose-dependent effect | 54 | 81 | 42 | 64 | Dose-dependent effect | Dose-dependent effect | > 500 | 25.8 | 21.2 | 20.4 | 3.13 (≈ 8.53 µg/mL) | 1.56 (≈ 4.25 µg/mL) | 3.13 (≈ 8.53 µg/mL) | 3.13 (≈ 8.53 µg/mL) | 3.13 (≈ 8.53 µg/mL) | 1.56 (≈ 4.25 µg/mL) | 6.25 (≈ 17 µg/mL) | 58 | 20 | Activity (Escherichia coli [8]): Active; Activity (Staphylococcus aureus [9]): Active; Activity (Lipid bilayer [15]): inactive; Activity (Lipid bilayer [16]): 16 nm; Activity (Lipid bilayer [17]): 20 nm; inhibition (U-937 [18]): Dose-dependent effect; inhibition (U-937 [19]): Dose-dependent effect; inhibition at 12.6 µM (U-937 [20]): 31%; inhibition at 6.25 µM (U-937 [21]): 27%; inhibition at 3.13 µM (U-937 [22]): 26%; inhibition at 12.6 µM (U-937 [23]): 33%; inhibition at 6.25 µM (U-937 [24]): 29%; inhibition at 3.13 µM (U-937 [25]): 17%; viability at 1 h, up to 12.6 µM [26]: 80%; Ka (Lipopolysaccharide (LPS) [27]): 136 mM⁻¹; Kd (Lipopolysaccharide (LPS) [28]): 7.35 µM; Activity (Lipopolysaccharide (LPS) [29]): 350 nm; Activity [30]: 66 nm; Activity [31]: 108 nm
CCCCCCCC(=O)N[C@@H](CO)C(=O)N[C@@H](CCCCN)C(=O)N[C@H](C(=O)N[C@@H](Cc1c[nH]c2ccccc12)C(=O)N[C@@H](CCCNC(=N)N)C(=O)N[C@@H](Cc1cnc[nH]1)C(=O)N[C@@H](Cc1c[nH]c2ccccc12)C(=O)N[C@@H](CCCNC(=N)N)C(=O)N[C@@H](CCCNC(=N)N)C(=O)N[C@@H](Cc1ccccc1)C(=O)N[C@@H](Cc1c[nH]c2ccccc12)C(=O)N[C@@H](Cc1cnc[nH]1)C(=O)N[C@@H](CCCNC(=N)N)C(=O)N[C@@H](C)C(=O)N[C@@H](Cc1cnc[nH]1)C(=O)N[C@@H](CCCNC(=N)N)C(=O)N[C@@H](CCCCN)C(=O)N[C@@H](CC(C)C)C(=O)O)C(C)C (Octanoyl-SKVWRHWRRFWHRAHRKL-OH) | Dose-dependent effect | 92 | 95 | 66 | 88 | Dose-dependent effect | Dose-dependent effect | > 500 | 34.9 | 51 | 23.9 | 1.56 (≈ 4.16 µg/mL) | 1.56 (≈ 4.16 µg/mL) | 1.56 (≈ 4.16 µg/mL) | 1.56 (≈ 4.16 µg/mL) | 3.13 (≈ 8.35 µg/mL) | 1.56 (≈ 4.16 µg/mL) | 3.13 (≈ 8.35 µg/mL) | 73 | 20 | Activity (Escherichia coli [32]): Active; Activity (Staphylococcus aureus [33]): Active; Activity (Lipid bilayer [15]): inactive; Activity (Lipid bilayer [16]): 16 nm; Activity (Lipid bilayer [17]): 24 nm; inhibition (U-937 [18]): Dose-dependent effect; inhibition (U-937 [19]): Dose-dependent effect; inhibition at 12.6 µM (U-937 [20]): 30%; inhibition at 6.25 µM (U-937 [21]): 28%; inhibition at 3.13 µM (U-937 [22]): 24%; inhibition at 12.6 µM (U-937 [23]): 24%; inhibition at 6.25 µM (U-937 [24]): 8%; inhibition at 3.13 µM (U-937 [25]): 7%; viability at 1 h, up to 12.6 µM [26]: 80%; Ka (Lipopolysaccharide (LPS) [27]): 92.3 mM⁻¹; Kd (Lipopolysaccharide (LPS) [28]): 10.8 µM; Activity (Lipopolysaccharide (LPS) [29]): 68 nm; Activity (Lipopolysaccharide (LPS) [34]): 400 nm; Activity [30]: 80 nm; Activity [31]: 7 nm
